Patent publication US10647680B2, “Urea compound, preparation method therefor and medical use thereof” (Ancureall Pharmaceutical (Shanghai) Co., Ltd., priority 2016, dated 2020)

Target: T1, CYP1A2 (Homo sapiens, UniProt P05177)
T1 construct: human liver microsomes (BD Gentest) (0.5 mg/mL); tissue BD Gentest; host or cells: human liver microsomes
T1 sequence (P05177 1-516): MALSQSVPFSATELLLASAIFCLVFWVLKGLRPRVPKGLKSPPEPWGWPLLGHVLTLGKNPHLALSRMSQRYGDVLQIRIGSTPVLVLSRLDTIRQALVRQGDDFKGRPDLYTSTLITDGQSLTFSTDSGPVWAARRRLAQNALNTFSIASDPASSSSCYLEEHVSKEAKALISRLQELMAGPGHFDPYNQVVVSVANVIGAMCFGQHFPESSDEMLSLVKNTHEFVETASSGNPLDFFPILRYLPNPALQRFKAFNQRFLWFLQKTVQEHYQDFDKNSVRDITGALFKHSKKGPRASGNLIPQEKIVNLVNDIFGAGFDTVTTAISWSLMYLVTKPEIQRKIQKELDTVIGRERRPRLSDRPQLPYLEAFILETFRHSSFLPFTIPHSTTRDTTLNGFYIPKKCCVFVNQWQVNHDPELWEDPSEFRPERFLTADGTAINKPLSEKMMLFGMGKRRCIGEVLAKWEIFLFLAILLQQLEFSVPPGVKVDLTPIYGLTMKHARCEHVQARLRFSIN
Test: P450 enzyme inhibition, CYP1A2
Type: in vitro ADME
Conditions: human liver microsomes
Protocol: Eight cytochrome p450 enzyme inhibition reactions of human liver microsomes were performed using compound 77 of the present invention as a representative example.
The main reaction systems and processes: in 37° C. water bath, the test compounds (7 concentrations, 0, 0.25, 0.5, 5, 10, 25, and 50 uM; the final methanol concentration was 1% in the system), human liver microsomes (BD Gentest) (0.5 mg/mL) and reducing coenzyme II (Roche 10621706001) (1 mg/mL) and the corresponding cytochrome p450 enzyme probe substrate were co-incubated for 5 to 20 minutes. Among them, (1) the probe substrate for CYP1A2 was Phenacetin ([…]) (Sigma), and the selective inhibitor alpha-naphthoflavone (2 uM) (Sigma) was for parallel detection as positive control, and they were incubated for 20 minutes. (2) The probe substrate for CYP2b6 was Bupropion (40 uM) (Sigma) and the selective inhibitor Ticlopidine (10 uM) (Sigma) was for parallel detection as positive control, and they were incubated for 20 minutes. (3) The probe substrate of CYP2C8 was Amodiaquine (1 uM) (Sigma), and the selective inhibitor Montelukast (10 uM) (Sigma) was for parallel detection as positive control, and they were incubated for 20 minutes. (4) The probe substrate for CYP2C9 was Diclofenac (2.5 uM) (Sigma), and the selective inhibitor Sulphaphenazole (10 uM) (Sigma) was for parallel detection as positive control, and they were incubated for 20 minutes. (5) The probe substrate for CYP2C19 was Mephenytoin (40 uM) (Sigma), and the selective inhibitor Ticlopidine (10 uM) (Sigma) was for parallel detection as positive control, and they were incubated for 20 minutes. (6) The probe substrate for CYP2D6 was Dextromethorphan (5 uM) (Sigma), and the selective inhibitor Quinidine (10 uM) (Sigma) was for parallel detection as positive control, and they were incubated for 20 minutes. (7) The probe substrates for CYP3A4-T and CYP3A4-M were Testosterone (5 uM) (Sigma) and Midazolam (5 uM) (Sigma), respectively, and the selective inhibitor was Ketoconazole (1 uM) (Sigma), they were detected in parallel as positive control, and incubated for 5 minutes. The reaction system was quenched by adding methanol containing the corresponding internal standard. The internal standard compound was Tolbutamide (Sigma). The concentration of the corresponding metabolites was determined by LC/MS/MS. For the data analysis, the decrease in peak area of the metabolite of the sample after addition of compound 77 relative to the peak area of the metabolite of the solvent control sample was used to calculate the IC50 (concentration of the test substance at 50% inhibition). The percentages of peak areas of metabolites of CYP1A2, CYP2B6, CYP2C8, CYP2C9, 15CYP2C19, CYP2D6, CYP3A4-T, and CYP3A4-M probe substrates after addition of different concentrations of compound 77 and selective inhibitors relative to the solvent control peak areas were shown in the Table 7.

In the case of `COCCOc1ccc2c(c1)ncn2-c1ccc(NC(=O)Nc2cc(C(C)(C)C)n[nH]2)cc1` [Compound 77, 1-(5-tert-butyl-2H-pyrazol-3-yl)-3-{4-[5-(2-methoxyl-ethoxyl)-benzimidazol-1-yl]-phenyl}-urea], the “CYP1A2 Remaining %” value (Concentration 0.25 uM) is reported as 95.7%, the “CYP1A2 Remaining %” value (Concentration 0.5 uM) is reported as 99.8% and the “CYP1A2 Remaining %” value (Concentration 5 uM) is reported as 94.1%. For the same compound, the “CYP1A2 Remaining %” value (Concentration 10 uM) was 92.1%, the “CYP1A2 Remaining %” value (Concentration 25 uM) was 80.9% and the “CYP1A2 Remaining %” value (Concentration 50 uM) was 63.4%. For the same compound, the IC50 (read-out: half-inhibitory concentration (IC50) of CYP1A2) was greater than 50 µM.
